From publication PMC11106072, “CDK9 inhibition as an effective therapy for small cell lung cancer” (Cell Death & Disease, 2024)

Biological target: T1, CDK9 (Homo sapiens, UniProt P50750)
T1 construct: with CyclinT1
Assay: IMAP fluorescence polarisation kinase assay with CDK9/CyclinT1 (TAMRA-Rbtide, […] ATP); radiometric selectivity panel of […] CDK/cyclin pairs
Assay type: biochemical

T1 sequence (P50750 whole entry): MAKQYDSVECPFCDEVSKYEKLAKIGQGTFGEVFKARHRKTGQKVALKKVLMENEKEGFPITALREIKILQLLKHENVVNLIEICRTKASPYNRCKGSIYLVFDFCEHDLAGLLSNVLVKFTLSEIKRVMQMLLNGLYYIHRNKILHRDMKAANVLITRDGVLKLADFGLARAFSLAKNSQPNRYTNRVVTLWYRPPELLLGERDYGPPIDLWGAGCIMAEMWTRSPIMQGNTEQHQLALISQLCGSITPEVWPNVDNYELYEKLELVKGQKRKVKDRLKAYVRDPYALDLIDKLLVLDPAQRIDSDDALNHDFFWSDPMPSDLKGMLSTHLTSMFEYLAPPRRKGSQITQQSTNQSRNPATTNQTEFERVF
T1 sequence (O60563 whole entry partner): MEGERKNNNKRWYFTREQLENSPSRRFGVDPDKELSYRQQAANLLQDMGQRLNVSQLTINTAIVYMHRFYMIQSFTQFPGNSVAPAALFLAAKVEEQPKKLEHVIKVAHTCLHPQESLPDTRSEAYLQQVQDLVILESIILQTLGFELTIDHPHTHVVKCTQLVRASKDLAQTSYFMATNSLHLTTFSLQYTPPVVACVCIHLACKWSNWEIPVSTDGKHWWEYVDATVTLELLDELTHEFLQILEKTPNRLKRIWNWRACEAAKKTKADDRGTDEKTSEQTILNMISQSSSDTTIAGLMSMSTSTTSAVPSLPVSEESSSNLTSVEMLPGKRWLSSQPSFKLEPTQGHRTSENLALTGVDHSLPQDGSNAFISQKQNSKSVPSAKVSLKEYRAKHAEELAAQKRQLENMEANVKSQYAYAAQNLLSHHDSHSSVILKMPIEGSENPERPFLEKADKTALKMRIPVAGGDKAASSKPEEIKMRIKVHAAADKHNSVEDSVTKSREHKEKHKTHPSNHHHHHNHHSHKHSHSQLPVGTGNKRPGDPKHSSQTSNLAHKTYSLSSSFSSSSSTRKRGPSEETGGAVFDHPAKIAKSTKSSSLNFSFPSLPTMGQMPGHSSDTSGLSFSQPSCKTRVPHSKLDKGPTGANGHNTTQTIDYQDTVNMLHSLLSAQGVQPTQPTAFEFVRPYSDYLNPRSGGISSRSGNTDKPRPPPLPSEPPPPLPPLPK

IC50: 7 nM
SMILES: COc1ccccc1-c1ncnc(Nc2cccc(Cn3cnc4ccccc43)c2)n1 [VC-1, VCC972839:01]
